Article PMC9505425, “Targeting of the Mitochondrial TET1 Protein by Pyrrolo[3,2-b]pyrrole Chelators” (International Journal of Molecular Sciences, 2022)
Several values for one entry are separate records, joined by “and”; a condition that tells them apart may be missing. Identical values can stand only once.

Experiments:
[1] = MTT cytotoxicity assay, HF-P4; type: cell-based, human; details: human, HF-P4 normal human dermal fibroblasts, repeats, read-out: Cell viability %
Experimental: (§1) The effects of the tested compounds 1–6 on HF-P4, U-118 MG, H1299, BT-20, and Caov-3 cell lines were evaluated by the MTT assay during 48 h treatment (Table 2 and Tables S2–S31). In all tested compounds, we recognized a difference in cytotoxicity between healthy cells (HF-P4) and cancer cell lines (BT-20, Caov-3, and H-1299). […] In the case of ovarian cancer, the authors discovered oncogenic and poor prognosis roles of TET1 in epithelial ovarian carcinoma (EOC). TET1 is believed to demethylate the epigenome and activate numerous oncogenic pathways in EOC. The aforementioned study presents a new mechanism where TET1 contributes to tumor development through collaboration with CK2α [21]. The overexpression of the TET1 protein was also found in triple negative breast cancer and was associated with an activation of PI3K/mTOR pathway and decreased overall survival.
(§2) A human dermal fibroblast cell line was used for intracellular localization and cytotoxicity assay (MTT). Human fibroblast cells HF-P4 (human fibroblasts—patient 4) are normal dermal fibroblasts, which were obtained from the residual skin of a healthy patient who underwent plastic surgery (with informed consent of the patient). HF-P4 cell lines were obtained from the Department of Plastic Surgery, Third Faculty of Medicine, Charles University and University Hospital Královské Vinohrady, Prague, Czech Republic, as described by Szabo et al., 2011, and Dvořánková et al., 2019 [88, 89], and have been processed in accordance with the relevant local ethics committee and the Declaration of Helsinki protection of patients’ rights and benefits with written and signed informed consent of each patient. Cells were cultivated under standard conditions in Dulbecco’s modified Eagle’s medium (ATCC, Manassas, VA, USA), supplemented with 10% FBS and streptomycin (100 μg/mL) at 37 °C at a 5% CO2 atmosphere.
(§3) For the cytotoxicity assay, we used the following cell lines: human glioblastoma cell line U118-MG, human mammary gland/breast cell line BT-20, human ovary adenocarcinoma cell line Caov-3, and non-small-cell lung carcinoma H-1299. As previously mentioned, these cell lines contain a high level of the TET1 protein, which corresponds to a lower overall survival. In addition to these cell cultures, we used the human dermal fibroblast cell line HF-P4 as a healthy control. Determination of cytotoxicity was performed using the MTT [3-(4,5-dimethylthiazol-2-yl)-2,5-diphenyltetrazolium bromide] colorimetric assay. Viable cells from each cell line were cultured in 96-well plates (VWR, Stříbrná Skalice, Czech Republic) at a density of 1.0 × 10^5 cells per well and allowed to grow for 24 h in 200 μL of recommended medium. After a 1-day incubation, the medium was replaced with solutions of compounds 1–6 at concentration ranges of 0.1–20 μM. Each concentration was measured four times within one test, and the entire test was repeated three times. Tested compounds 1–6 were dissolved in DMSO and then diluted with corresponding medium to a final volume of 200 μL (maximum 1% DMSO). After 48 h exposure, cells were treated with 175 μL of MTT solution (P-LAB, Prague, Czech Republic) for 2 h. In the next step, MTT solution was removed, and 125 μL of DMSO (Penta, Prague, Czech Republic) was added to solubilize dark crystals of formazan formed in intact cells, and absorbance was measured at 570 nm by the enzyme-linked immunoabsorbent assay reader Infinite® 200 PRO (Tecan, Männedorf, Switzerland). The final DMSO concentration was smaller than 1% (v/v). The absorbance of untreated cells was considered 100%, and IC50 values were calculated by the GraphPad Prism 8 software. As a parameter for cytotoxicity, we used a concentration that inhibits 50% of cell growth (IC50).

HF-P4 cells = test: MTT cytotoxicity assay, HF-P4; type: cell-based, human; details: 48 h; for Cell viability %: repeats
Experimental: as §1, §2, §3

H-1299 cells = test: MTT cytotoxicity assay, H-1299; type: cell-based, human
Experimental: as §1
A human glioblastoma cell line (U118-MG) and a human non-small-cell lung carcinoma cell line (H1299) were used for the cytotoxicity assay (MTT). Both cell lines were generously supplied by Dr. M. Masařik, PhD, Department of Pathological physiology, Masaryk University, Czech Republic. U118-MG cells were cultivated under standard conditions in Dulbecco’s modified Eagle’s medium (ATCC, Manassas, VA, USA) supplemented with 10% FBS and streptomycin (100 μg/mL) at 37 °C at a 5% CO2 atmosphere. H1299 cells were cultivated under standard conditions in RPMI 1640 (BioTech, Prague, Czech Republic) medium supplemented with 10% FBS and streptomycin (100 μg/mL) at 37 °C at a 5% CO2 atmosphere.
as §3

Caov-3 cells = test: MTT cytotoxicity assay, Caov-3; type: cell-based, human
Experimental: as §1
The human ovary adenocarcinoma cell line (Caov-3), purchased from ATCC (Caov-3 (ATCC® HTB-75™), Manassas, VA, USA), was used for the cytotoxicity assay (MTT). Caov-3 cells were cultivated under standard conditions in Dulbecco’s modified Eagle’s medium (ATCC, Manassas, VA, USA) supplemented with 10% FBS and streptomycin (100 μg/mL) at 37 °C at a 5% CO2 atmosphere.
as §3

- melting point: 332 to 333 °C
SMILES: Cc1ccc(-n2c(-c3ccc(C(=O)N/N=C/c4ccccc4O)cc3)cc3c2cc(-c2ccc(C(=O)N/N=C/c4ccccc4O)cc2)n3-c2ccc(C)cc2)cc1 [Compound 6]
- viability at 48 h, 0.5 µM ([1]; HF-P4, 500 nM): 103%
- viability at 48 h, 0.75 µM ([1]; HF-P4, 750 nM): 97.8%
- viability at 48 h, 1 µM ([1]; HF-P4, 1 uM): 84.4%
- viability at 48 h, 2.5 µM ([1]; HF-P4, 2.5 uM): 94.5%
- viability at 48 h, 5 µM ([1]; HF-P4, 5 uM): 84.3%
- viability at 48 h, 7.5 µM ([1]; HF-P4, 7.5 uM): 62.3%
- viability at 48 h, 10 µM ([1]; HF-P4, 10 uM): 66.1%
- viability at 48 h, 15 µM ([1]; HF-P4, 15 uM): 62.5%
- viability at 48 h, 20 µM ([1]; HF-P4, 20 uM): 48%
- Cell viability % (HF-P4 cells; HF-P4, 100 nM, 0.1 µM): 114.4851% and 90.24% and 95.4%
- Cell viability % (HF-P4 cells; HF-P4, 500 nM, 0.5 µM): 95.79% and 101.8289%
- Cell viability % (HF-P4 cells; HF-P4, 750 nM, 0.75 µM): 92.17% and 90.68%
- Cell viability % (HF-P4 cells; HF-P4, 1 uM, 1 µM): 84.11% and 85.78%
- Cell viability % (HF-P4 cells; HF-P4, 2.5 uM, 2.5 µM): 75.58% and 74.71%
- Cell viability % (HF-P4 cells; HF-P4, 5 uM, 5 µM): 73.0472% and 65.6%
- Cell viability % (HF-P4 cells; HF-P4, 7.5 uM, 7.5 µM): 61.49% and 69.35%
- Cell viability % (HF-P4 cells; HF-P4, 10 uM, 10 µM): 61.41% and 64.7001%
- Cell viability % (HF-P4 cells; HF-P4, 15 uM, 15 µM): 54.9% and 58.15%
- Cell viability % (HF-P4 cells; HF-P4, 20 uM, 20 µM): 42.62% and 43.54%
- IC50 (HF-P4 cells; Homo sapiens, MTT): 16.4 µM
- Cell viability % (H-1299 cells; H-1299, 100 nM, 48 h, repeats, 0.1 µM): 77.16% and 73.27%
- Cell viability % (H-1299 cells; H-1299, 500 nM, 48 h, repeats, 0.5 µM): 69.88% and 74.98%
- Cell viability % (H-1299 cells; H-1299, 750 nM, 48 h, repeats, 0.75 µM): 83.61% and 74.75%
- Cell viability % (H-1299 cells; H-1299, 1 uM, 48 h, repeats, 1 µM): 86.38% and 69.89% and 61.2%
- Cell viability % (H-1299 cells; H-1299, 2.5 uM, 48 h, repeats, 2.5 µM): 77.45% and 63.25% and 56.68%
- Cell viability % (H-1299 cells; H-1299, 5 uM, 48 h, repeats, 5 µM): 69.4% and 77.63% and 53.79%
- Cell viability % (H-1299 cells; H-1299, 7.5 uM, 48 h, repeats, 7.5 µM): 53.98% and 50.36%
- Cell viability % (H-1299 cells; H-1299, 10 uM, 48 h, repeats, 10 µM): 52.11% and 46.79%
- Cell viability % (H-1299 cells; H-1299, 15 uM, 48 h, repeats, 15 µM): 36.42% and 29.24%
- Cell viability % (H-1299 cells; H-1299, 20 uM, 48 h, repeats, 20 µM): 33.42% and 31.6%
- viability at 0.1 µM (H-1299 cells; Homo sapiens, NCI-H1299, 48 h, H-1299, 100 nM, repeats, read-out: Cell viability %): 74.6%
- viability at 0.5 µM (H-1299 cells; Homo sapiens, NCI-H1299, 48 h, H-1299, 500 nM, repeats, read-out: Cell viability %): 82%
- viability at 0.75 µM (H-1299 cells; Homo sapiens, NCI-H1299, 48 h, H-1299, 750 nM, repeats, read-out: Cell viability %): 90.2%
- viability at 7.5 µM (H-1299 cells; Homo sapiens, NCI-H1299, 48 h, H-1299, 7.5 uM, repeats, read-out: Cell viability %): 63.7%
- viability at 10 µM (H-1299 cells; Homo sapiens, NCI-H1299, 48 h, H-1299, 10 uM, repeats, read-out: Cell viability %): 54.8%
- viability at 15 µM (H-1299 cells; Homo sapiens, NCI-H1299, 48 h, H-1299, 15 uM, repeats, read-out: Cell viability %): 38.7%
- viability at 20 µM (H-1299 cells; Homo sapiens, NCI-H1299, 48 h, H-1299, 20 uM, repeats, read-out: Cell viability %): 34.4%
- IC50 (H-1299 cells; Homo sapiens, NCI-H1299, MTT, 48 h): 14.6 µM
- Cell viability % (Caov-3 cells; Caov-3, 100 nM, 48 h, repeats, 0.1 µM): 90.2569% and 126.2705% and 118.7488%
- Cell viability % (Caov-3 cells; Caov-3, 500 nM, 48 h, repeats, 0.5 µM): 89.11% and 125.1899% and 99.08%
- Cell viability % (Caov-3 cells; Caov-3, 750 nM, 48 h, repeats, 0.75 µM): 65.96% and 78.5%
- Cell viability % (Caov-3 cells; Caov-3, 1 uM, 48 h, repeats, 1 µM): 64.72% and 111.7508% and 115.9087%
- Cell viability % (Caov-3 cells; Caov-3, 2.5 uM, 48 h, repeats, 2.5 µM): 67.86% and 93.922% and 75.11%
- Cell viability % (Caov-3 cells; Caov-3, 5 uM, 48 h, repeats, 5 µM): 62.99% and 65.69% and 100.7653%
- Cell viability % (Caov-3 cells; Caov-3, 7.5 uM, 48 h, repeats, 7.5 µM): 58% and 65.63% and 91.09%
- Cell viability % (Caov-3 cells; Caov-3, 10 uM, 48 h, repeats, 10 µM): 52.62% and 73.89% and 61.74%
- Cell viability % (Caov-3 cells; Caov-3, 15 uM, 48 h, repeats, 15 µM): 42.46% and 49.26%
- Cell viability % (Caov-3 cells; Caov-3, 20 uM, 48 h, repeats, 20 µM): 17.34% and 16.88%
- viability at 0.75 µM (Caov-3 cells; Homo sapiens, Caov-3, 48 h, Caov-3, 750 nM, repeats, read-out: Cell viability %): 67%
- viability at 15 µM (Caov-3 cells; Homo sapiens, Caov-3, 48 h, Caov-3, 15 uM, repeats, read-out: Cell viability %): 36.3%
- viability at 20 µM (Caov-3 cells; Homo sapiens, Caov-3, 48 h, Caov-3, 20 uM, repeats, read-out: Cell viability %): 17.4%
- IC50 (Caov-3 cells; Homo sapiens, Caov-3, MTT, 48 h): 15.4 µM
